Calls of active or inactive are those of the source. The rule behind the calls is not given here. Starred links: 1 amine or outer side, 2 acyl side, 3 side chain; linkers in the order of their positions; H or OH if unused. Positions of bridges follow the written chain, without caps; N, C: chain ends. Non-standard residues stand in square brackets, D forms with d. Residues, ends and D or L forms follow the SMILES beside them. Chains are numbered I, II in the order given. NHNH = N(N[*:2])[*:1]
Columns and labels:
[1] = organism: Rattus norvegicus; test: Selectivity ratio of Ki for displacement of [3H]lleDelt2 from DOR in Wistar rat whole brain membranes to displacement of [3H]DAMGO from MOR in Wistar rat whole brain membranes; assay type: cell membranes
[2] = test system: Mus musculus; test: Analgesic activity in formalin-induced nociception Harlan CD-1 mouse model assessed as reduction in time spent in licking or biting formalin injected hind paw during inflammatory phase at 0.1 nmol, sc pretreated for 15 mins followed by formalin induction measured after 15 to 40 mins; assay type: functional, organism-based
[3] = Half life in human plasma at 100 ug/ml by HPLC method; assay type: ADME, cell-free
[4] = (§1) Agonist activity at heteromeric G-protein in Wistar rat whole brain membranes after 30 mins by [35S]GTPgammaS binding assay; assay type: cell membranes, Membrane
[5] = organism: Rattus norvegicus; test: as §1; assay type: cell membranes; conditions: Membrane
[6] = test system: Mus musculus; test: Analgesic activity in formalin-induced nociception Harlan CD-1 mouse model assessed as reduction in time spent in licking or biting formalin injected hind paw during neurogenic phase at 0.1 nmol, sc pretreated for 15 mins followed by formalin induction measured up to 10 mins; assay type: functional, organism-based
[7] = test system: Mus musculus; test: Antinociceptive activity in Harlan CD-1 mouse model of thermal-induced nociception assessed as increase in latency to tail withdrawal at 0.01 nmol, icv measured after 45 to 90 mins by tail flick test; assay type: functional, organism-based
[8] = organism: Mus musculus; test: Antinociceptive activity in Harlan CD-1 mouse model of thermal-induced nociception assessed as increase in latency to tail withdrawal at 0.01 nmol, i.t measured after 45 to 120 mins by tail flick test; assay type: functional, organism-based
[9] = biological target: Mu-type opioid receptor (Rattus norvegicus, UniProt P33535); test: Displacement of [3H]DAMGO from MOR in Wistar rat whole brain membranes after 45 mins by liquid scintillation counting method; assay type: cell membranes, Membrane
[10] = biological target: Delta-type opioid receptor (Rattus norvegicus, UniProt P33533); test: Displacement of [3H]lleDelt2 from DOR in Wistar rat whole brain membranes after 45 mins by liquid scintillation counting method; assay type: cell membranes, Membrane
[11] = organism: Mus musculus; test: Antinociceptive activity in Harlan CD-1 mouse model of thermal-induced nociception assessed as increase in latency to tail withdrawal at 0.01 nmol, i.t measured after 15 to 120 mins by tail flick test; assay type: functional, organism-based
[12] = test system: Mus musculus; test: Antinociceptive activity in Harlan CD-1 mouse model of thermal-induced nociception assessed as increase in latency to tail withdrawal at 0.01 nmol, icv measured after 15 to 120 mins by tail flick test; assay type: functional, organism-based
[13] = biological target: Mu-type opioid receptor (Homo sapiens, UniProt P35372); test: Binding affinity to MOR (unknown origin)
Mu-type opioid receptor (Homo sapiens, UniProt P35372), sequence (P35372 whole entry): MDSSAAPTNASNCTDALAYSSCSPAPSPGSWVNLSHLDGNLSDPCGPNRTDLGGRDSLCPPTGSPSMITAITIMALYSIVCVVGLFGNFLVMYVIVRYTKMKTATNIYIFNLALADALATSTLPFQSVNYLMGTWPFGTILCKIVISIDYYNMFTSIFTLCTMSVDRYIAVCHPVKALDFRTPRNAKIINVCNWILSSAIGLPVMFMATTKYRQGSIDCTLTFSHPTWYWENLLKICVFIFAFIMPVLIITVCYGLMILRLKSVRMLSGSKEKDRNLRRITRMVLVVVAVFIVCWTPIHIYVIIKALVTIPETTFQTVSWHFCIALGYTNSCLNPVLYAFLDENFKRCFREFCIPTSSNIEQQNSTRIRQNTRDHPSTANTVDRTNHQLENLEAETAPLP

Delta-type opioid receptor, sequence (P33533 whole entry): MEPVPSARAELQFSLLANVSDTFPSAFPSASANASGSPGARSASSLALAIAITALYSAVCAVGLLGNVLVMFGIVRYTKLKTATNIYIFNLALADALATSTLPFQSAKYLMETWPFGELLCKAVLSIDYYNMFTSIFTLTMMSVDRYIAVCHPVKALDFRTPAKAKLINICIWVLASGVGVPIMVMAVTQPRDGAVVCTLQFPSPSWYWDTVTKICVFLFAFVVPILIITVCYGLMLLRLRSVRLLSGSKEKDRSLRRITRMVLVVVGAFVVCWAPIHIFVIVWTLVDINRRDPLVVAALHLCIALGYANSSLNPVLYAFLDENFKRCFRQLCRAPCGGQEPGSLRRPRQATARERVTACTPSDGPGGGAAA
Mu-type opioid receptor (Rattus norvegicus, UniProt P33535), sequence (P33535 whole entry): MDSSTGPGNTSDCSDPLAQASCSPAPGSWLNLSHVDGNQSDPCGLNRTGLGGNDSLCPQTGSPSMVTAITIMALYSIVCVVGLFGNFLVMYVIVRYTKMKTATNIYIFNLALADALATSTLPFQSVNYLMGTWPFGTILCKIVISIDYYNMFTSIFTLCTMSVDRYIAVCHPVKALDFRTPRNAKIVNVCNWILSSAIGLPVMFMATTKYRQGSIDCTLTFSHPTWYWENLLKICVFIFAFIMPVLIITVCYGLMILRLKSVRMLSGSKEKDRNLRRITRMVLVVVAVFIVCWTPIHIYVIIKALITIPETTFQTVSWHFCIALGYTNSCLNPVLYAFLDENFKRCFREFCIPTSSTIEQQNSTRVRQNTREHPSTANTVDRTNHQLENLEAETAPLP

Structure (SMILES)	Ratio Ki [1]	Activity [2]	half-life at 100 ug/ml [3] [h]	EC50 [4] [nM]	Emax [5] [%]	Activity [6]	Activity [7]	Activity [8]	Ki [9] [nM]	Ki [10] [nM]	Activity [11]	Activity [12]	EC50 [13] [nM]
N[C@@H](Cc1ccc(O)cc1)C(=O)N[C@@H]1CSCc2ccccc2CSC[C@@H](NC(=O)[C@@H](N)Cc2ccc(O)cc2)C(=O)NCC(=O)N[C@@H](Cc2ccccc2)C(=O)NNC(=O)[C@H](Cc2ccccc2)NC(=O)CNC1=O.O=C(O)C(F)(F)F.O=C(O)C(F)(F)F	1.8	Active	1.45	247	137	Active	Active	Active	1.33	2.26			
N[C@@H](Cc1ccc(O)cc1)C(=O)N[C@@H]1CSCc2cccc(c2)CSC[C@@H](NC(=O)[C@@H](N)Cc2ccc(O)cc2)C(=O)NCC(=O)N[C@@H](Cc2ccccc2)C(=O)NNC(=O)[C@H](Cc2ccccc2)NC(=O)CNC1=O	2.2	Active		213	160	Active			1.73	3.81	Active	Active	
C[C@@H](NC(=O)[C@@H](N)Cc1ccc(O)cc1)C(=O)NCC(=O)N[C@@H](Cc1ccccc1)C(=O)NNC(=O)[C@H](Cc1ccccc1)NC(=O)CNC(=O)[C@@H](C)NC(=O)[C@@H](N)Cc1ccc(O)cc1 [BIPHALIN]		Active	0.55	75.4	177	Active			0.79	3.5			1 to 4
N[C@@H](Cc1ccc(O)cc1)C(=O)N[C@@H]1CSSC[C@@H](NC(=O)[C@@H](N)Cc2ccc(O)cc2)C(=O)NCC(=O)N[C@@H](Cc2ccccc2)C(=O)NNC(=O)[C@H](Cc2ccccc2)NC(=O)CNC1=O (I: H-Y[dC]GF / II: H-Y[dC]GF; disulfide I:2-II:2; linker I:C-II:C via NHNH)	0.9			508	146				6.06	5.25			
N[C@@H](Cc1ccc(O)cc1)C(=O)N[C@@H]1CSCc2ccc(cc2)CSC[C@@H](NC(=O)[C@@H](N)Cc2ccc(O)cc2)C(=O)NCC(=O)N[C@@H](Cc2ccccc2)C(=O)NNC(=O)[C@H](Cc2ccccc2)NC(=O)CNC1=O	1.5	Active		87.4	150	Active			1.61	2.52	Active	Active	
